The nature of this data set: Determination of tolcapone's particle size (laser analyzer MASTERSIZER 2000, Ph. Eur. 2.9.31). Type of data set: physicochemical. The settings on record: wet dispersion in water for injection. From the text: Determination of Tolcapone's Particle Size
Particle size measurement (Dv,0.1, Dv,05, Dv,0.9 and Dv,1.0) may be determined according to the general method described in section 2.9.31 of the European Pharmacopeia in particular using a particle size laser analyzer MASTERSIZER 2000 from Malvern featuring a wet dispersion unit HYDRO 2000 SM for small volumes of sample.
Material: • Sample: Tolcapone suspension • Refraction index: 1.59 (default) • Dispersant: water for injection • Refraction index: 1.33
Cycles: • Measurements for each aliquot: 3 • Lag time: 12 s • Pump stirring velocity: 2500 rpm
Measuring Time: • Measure: 12 s (in triplicates) • Measure snaps: 12000 • Background: 10 s • Background snaps: 10000
Three readings are made for each sample.
Thus, Dv,0.9 lower than 54.33 μm that 90% of the volume of the particles is in particles which are smaller 54.33 μm.

On to `Cc1ccc(C(=O)c2cc(O)c(O)c([N+](=O)[O-])c2)cc1` [micronized tolcapone, (3,4-dihydroxy-5-nitrophenyl)(4-methylphenyl)methanone], for which the “Dv,0.1” value is listed as under 6.09 μm, the “Dv,0.5” value is on record as under 17.62 μm, the “Dv,0.9” value is under 54.33 μm and the “Dv,1.0” value is given as under 316.23 μm.

`Cc1ccc(C(=O)c2cc(O)c(O)c([N+](=O)[O-])c2)cc1` [non-micronized tolcapone, (3,4-dihydroxy-5-nitrophenyl)(4-methylphenyl)methanone]: the “Dv,0.1” value was under 22.45 μm, the “Dv,0.5” value was under 87.23 μm, the “Dv,0.9” value is recorded as under 307.86 μm and the “Dv,1.0” value is recorded as under 1096.48 μm.

The values are drawn from patent US11883538B2, “Sustained release compositions comprising micronized tolcapone” (Som Innovation Biotech, S.L., priority 2016, dated 2024).
